From patent publication US8734816B2, “Porous nanoparticle supported lipid bilayer nanostructures” (STC.UNM, priority 2009, dated 2014)
Where a name gives a salt, the structure may show the parent alone.

Key:
[1] = test system: Chinese Hamster Ovary (CHO) cells; test: Cellular uptake of supported bilayers (protocells); assay type: cell-based; conditions: green fluorescence of cells
Protocol: Cell Culture: Chinese Hamster Ovary cells (CHO) were obtained from the American Type Culture Collection (ATCC) and maintained in K-12 media supplemented with about 10% fetal bovine serum, about 1% penicillin and about 1% streptomycin. The media were changed every two to three days and the cells were passaged by trypsinization. To prepare samples for confocal imaging, round glass cover slips were used for cell growth. The glass slides were treated with 0.1M KOH for at least 24 hours before use. Cells in the media were dropped onto the cover slips and the slips were kept in Petri dishes. The cells were kept in an incubator at 37° C. with 5% CO2 and 95% humidity. Cellular uptake of supported bilayers (protocells): about 1 mL of serum free media was warmed to about 37° C. and about 10 μL of the above prepared supported bilayers were added and vortexed. To study the uptake of supported bilayers by CHO cells, the cells were grown to ˜70% confluence. The old media was removed and fresh media with supported bilayers were introduced. The cells were incubated for about four hours at about 37° C. and free particles were washed away with PBS and media before imaging. Confocal fluorescence microscopy: A Bio-Rad Radiance 2100 confocal fluorescence microscope system was used for imaging cells. […]

[2] = Lipid association with mesoporous silica nanoparticles; assay type: physicochemical; conditions: <20 μg liposome per 0.5 mg silica particles; 5% DHPE-Texas Red label; neutral pH
Protocol: To measure the amount of lipid associated with silica nanoparticles as a function of lipid concentration, about 20 μL aliquots of 25 mg/mL silica nanoparticles were mixed with 1, 2, 3, 5, 7, 10, 20, and 30 μL of 2.5 mg/mL lipids. The lipids tested included DOPC, DOPS and DOTAP, all containing 5% DHPE-Texas Red labels. The mixtures were centrifuged. The Texas Red absorbance from the supernatant and the silica nanoparticles was measured.

[3] = Quantification of calcein encapsulated / concentration estimation inside mesoporous silica nanoparticles; assay type: physicochemical; conditions: supported bilayers of different lipids
Protocol: To prepare supported bilayers that encapsulate calcein, the silica nanoparticles were first mixed with 250 μM calcein and liposomes were subsequently added. The remaining procedures were the same as described above.
Mesoporous silica nanoparticles (about 50 mg, no FITC modification) were dispersed in 2 mL water. About 5 μL of 100 mM calcein was added so the final dye concentration was ˜250 μM. The solution was divided into 50 μL aliquots and equal volumes of liposomes of different compositions were mixed to form supported bilayers. The supported bilayers were centrifuged and washed three times with 200 μL of 0.25×PBS to remove free calcein. Finally, about 50 μL of 1% SDS buffer solution was added to the precipitated supported bilayers to disrupt the lipid bilayer and release the calcein dye. About 150 μL of 0.25×PBS was then added to make the final volume to be about 200 μL and the tubes were centrifuged at 15000 rpm for about 2 minutes to precipitate silica nanoparticles. About 10 μL from the supernatant was transferred into a quartz microcuvette with a path length of about 1 cm to measure the absorbance at a wavelength of about 500 nm, which is proportional to the amount of calcein dye retained in the mesoporous silica nanoparticle.
Because the volume of this final solution was about 200 μL, the retained calcein in silica was then about 9 nmol. […]

[4] = Colloidal stability of the silica/lipid mixture as a function of lipid concentration (dynamic light scattering); assay type: physicochemical; conditions: at low liposome contents
Protocol: Depending on the relative amount of liposome added, silica particles first aggregated at low lipid concentrations to form large aggregates, which disappeared upon adding more liposomes. […] Similar observations were also reported for polystyrene beads, where aggregation was attributed to liposome mediated nanoparticle assembly at low lipid concentrations. Therefore, to form supported bilayers with good colloidal stability, excess amount of liposomes (50 μg liposome per 0.5 mg silica) were used.

With `O=C(O)CN(CC(=O)O)Cc1cc2c(cc1O)Oc1cc(O)c(CN(CC(=O)O)CC(=O)O)cc1C21OC(=O)c2ccccc21` [calcein] the “uptake of calcein into CHO cells” value [1] was “can not take”.
With `CCCCCCCC/C=C\CCCCCCCC(=O)OC[C@H](COP(=O)(O)OC[C@H](N)C(=O)O)OC(=O)CCCCCCC/C=C\CCCCCCCC` [DOPS, 1,2-Dioleoyl-sn-Glycero-3-[Phospho-L-Serine] (Sodium Salt)] the “association of liposomes with silica nanoparticles” value (“association of liposomes” for short) [2] was “did not associate”.
In the case of `CCCCCCCC/C=C\CCCCCCCC(=O)OCC(C[N+](C)(C)C)OC(=O)CCCCCCC/C=C\CCCCCCCC.[Cl-]` (stereo not shown) [DOTAP, 1,2-Dioleoyl-3-Trimethylammonium-Propane (Chloride Salt)], the “calcein encapsulation efficiency (comparison of lipids)” value [3] is reported as “highest”, the “association of liposomes” value [2] is reported as “almost quantitatively associated” and the “average size of particles” value [4] is reported as “significant increase”.
With `CCCCCCCC/C=C\CCCCCCCC(=O)OC[C@H](COP(=O)([O-])OCC[N+](C)(C)C)OC(=O)CCCCCCC/C=C\CCCCCCCC` [DOPC, 1,2-Dioleoyl-sn-Glycero-3-Phosphocholine] the “association of liposomes” value [2] was “almost quantitatively associated” and the “average size of particles” value [4] was “significant increase”.
